Assay results: the supplement of paper PMC13380429

Tests used:
Conditions in all cases: 72 h
Caco-2 [1] = assay: cell viability relative to DMSO; higher = less toxic
Calu-3 [2] = assay: as above
HepG2 [3] = assay: as above
U2OS [4] = assay: as above
Vero E6 [5] = assay: as above
Caco-2 [6] = assay: relative viability EC50 (midpoint between 100% and the lowest measured viability); higher = less toxic
Calu-3 [7] = assay: as above
HepG2 [8] = assay: as above
U2OS [9] = assay: as above
Vero E6 [10] = assay: as above
Caco-2 [11] = assay: drug sensitivity score (DSS) for viability; higher = more toxic; extreme values may be limits of the assay
Calu-3 [12] = assay: as above
HepG2 [13] = assay: as above
U2OS [14] = assay: as above
Vero E6 [15] = assay: as above

Structure (SMILES)	cell viability (Caco-2 [1]; 1 nM) [%]	cell viability (Caco-2 [1]; 10 nM) [%]	cell viability (Caco-2 [1]; 100 nM) [%]	cell viability (Caco-2 [1]; 1000 nM) [%]	cell viability (Caco-2 [1]; 10000 nM) [%]	cell viability (Calu-3 [2]; 1 nM) [%]	cell viability (Calu-3 [2]; 10 nM) [%]	cell viability (Calu-3 [2]; 100 nM) [%]	cell viability (Calu-3 [2]; 1000 nM) [%]	cell viability (Calu-3 [2]; 10000 nM) [%]	cell viability (HepG2 [3]; 1 nM) [%]	cell viability (HepG2 [3]; 10 nM) [%]	cell viability (HepG2 [3]; 100 nM) [%]	cell viability (HepG2 [3]; 1000 nM) [%]	cell viability (HepG2 [3]; 10000 nM) [%]	cell viability (U2OS [4]; 1 nM) [%]	cell viability (U2OS [4]; 10 nM) [%]	cell viability (U2OS [4]; 100 nM) [%]	cell viability (U2OS [4]; 1000 nM) [%]	cell viability (U2OS [4]; 10000 nM) [%]	cell viability (Vero E6 [5]; 1 nM) [%]	cell viability (Vero E6 [5]; 10 nM) [%]	cell viability (Vero E6 [5]; 100 nM) [%]	cell viability (Vero E6 [5]; 1000 nM) [%]	cell viability (Vero E6 [5]; 10000 nM) [%]	relative viability EC50 (Caco-2 [6]) [nM]	relative viability EC50 (Calu-3 [7]) [nM]	relative viability EC50 (HepG2 [8]) [nM]	relative viability EC50 (U2OS [9]) [nM]	relative viability EC50 (Vero E6 [10]) [nM]	drug sensitivity score (Caco-2 [11])	drug sensitivity score (Calu-3 [12])	drug sensitivity score (HepG2 [13])	drug sensitivity score (U2OS [14])	drug sensitivity score (Vero E6 [15])
CCOC(=O)Nc1cc2c(c(N)n1)N=C(c1ccccc1)[C@H](C)N2 [mivobulin]	103	52.5	48.7	47.3	42.2	95.7	65.2	37.5	40.7	42.7	99.6	42.9	24.1	21.5	22.9	95.7	38.6	20.7	23.3	21.9	94.3	20.2	8.2	9.9	13.5	5.5	8.3	6.7	5	3.9	23.8	23.7	31.1	32.4	38.5
CCCC[C@H](NC(=O)[C@@H]1[C@@H]2[C@H](CN1C(=O)[C@@H](NC(=O)NC1(CS(=O)(=O)C(C)(C)C)CCCCC1)C(C)(C)C)C2(C)C)C(=O)C(=O)NC1CC1 [narlaprevir]	100	96.4	102	93.8	95.5	90.9	108	92.5	94.5	107	102	112	96.3	103	94.7	104	98.8	100	96.9	97.1	98.1	100	102	99.5	87.8	> 10000	> 10000	> 10000	> 10000	> 10000	0	0	0	0	0.1
